In paper PMC6320863, “Interaction of Chrysin and Its Main Conjugated Metabolites Chrysin-7-Sulfate and Chrysin-7-Glucuronide with Serum Albumin” (International Journal of Molecular Sciences, 2018):

The compounds below were run on T1, ochratoxin A–HSA complex (assay: Fluorescence anisotropy of ochratoxin A–HSA complex). Details: 1.0 µmol/L ochratoxin A, 1.5 µmol/L HSA, flavonoid 2.5–30 μM, PBS pH 7.4, λex 393 nm, λem 446 nm.
T1 construct: purchased Sigma-Aldrich
Assay type: binding, human
`O=c1cc(-c2ccccc2)oc2cc(O)cc(O)c12` [Chrysin, 5,7-dihydroxyflavone] was tested, and the “Fluorescence anisotropy of ochratoxin A” value was “failed to affect”. In the case of `O=C(O)C1OC(Oc2cc(O)c3c(=O)cc(-c4ccccc4)oc3c2)C(O)C(O)C1O` (stereo not drawn) [Chrysin-7-glucuronide, chrysin-7-glucuronide], the “Fluorescence anisotropy of ochratoxin A” value is reported as “failed to affect”. For `O=c1cc(-c2ccccc2)oc2cc(OS(=O)(=O)O)cc(O)c12` [Chrysin-7-sulfate, chrysin-7-sulfate], the “Fluorescence anisotropy of ochratoxin A” value was “concentration-dependent decrease”.
